Experimental data from US8461186B2, “Use of N-piperidine derivatives for the treatment of neurodegenerative pathologies” (Medestea Research & Production S.p.A., priority 2004, dated 2013).
Read-outs that look alike come from different tables or passages of the source.

Experiments:
[1] = tested on: rats receiving Paraquat into Substantia Nigra; assay type: in vivo, rat; details: for deaths of rats: 120 mg/kg intraperitoneally 5 minutes prior to, simultaneously with, or 5 minutes after 50 μg Paraquat; for signs of alterations during continuous monitoring / survival for a further 24 hours: Paraquat (50 μg) microinfused simultaneously with 1 μg compound; for capacity to cross the blood-brain barrier (BBB): concluded from protection after intraperitoneal administration; for protection against the behavioural and neuropathological effects induced by Paraquat: intracerebral and peripheral administration
Source text: The Paraquat/rat/PS experimental model was therefore selected as the most indicative for checking the efficacy of chemical compounds according to the present invention; of these, two anti-oxidants designated MP1002 and MP1001 were used in the tests:
Male Sprague Dawley rats (210-220 g weight) were kept on a standard laboratory diet supplemented with “Nossan Pellets” (both the animals and the pellets are available from Nossan Company, Milan, Italy) and were housed for three weeks (relative humidity 50%±10%, temperature 22° C.±1 and in a light/darkness cycle of 12 hours/12 hours, with first light at 7.30 a.m.) prior to the tests; food and water were available ad libitum.
Prior to treatment, the rats were anaesthetized by intraperitoneal injection of 380 mg/kg weight of chloral hydrate; a stainless steel guide cannula (size 25) was implanted unilaterally in the Substantia Nigra with stereotaxic guiding and was secured to the cranium with dental acrylic material.
The animals (20 per test group) were allowed a recovery period of seven days prior to treatment; during this period no change in motor activity or posture was observed. Microinfusions were performed by means of a 10 μl Hamilton syringe connected to an injection cannula by means of a Teflon tube. The compounds or the vehicle (0.8% NaCl) were injected at a total volume of 1 μl/minute.
Microinfusion of 50 μg of Paraquat into the Substantia Nigra (n=20 rats) led to an increase in motor activity with the animals performing jumps and moving in circles in a contralateral direction relative to the injection position, about 24 minutes later; all of the animals were dead 24±2.5 hours after infusion. A further twenty animals were infused with Paraquat and twenty with Paraquat plus vehicle; about ten of the animals for each group survived 20 hours after treatment and were used to determine the development of lipid peroxidation in the Substantia Nigra.

[2] = tested on: lipid peroxidation in the Substantia Nigra; assay type: in vivo; details: for Lipid Peroxidation: Substantia Nigra, 24 hours; for lipid peroxidation in the Substantia Nigra: treatment before, with, or after infusion with Paraquat, p<0.01
Protocol: Microinfusion of 50 μg of Paraquat into the Substantia Nigra (n=20 rats) led to an increase in motor activity with the animals performing jumps and moving in circles in a contralateral direction relative to the injection position, about 24 minutes later; all of the animals were dead 24±2.5 hours after infusion. […]
(§1) […]. Enzymol. 52, 302-310, 1978.

[3] = tested on: myocardial ischaemia and reperfusion (I/R) in the rat; assay: Myocardial lesion due to ischaemia and reperfusion (LAD occlusion): size of the infarct; assay type: in vivo; details: 10 mg/kg bolus 5 minutes prior to reperfusion, then 2 mg/kg/h; LAD occlusion 25 minutes, reperfusion 2 hours; p<0.01 (FIG. 1)
Protocol: The in vivo model of myocardial lesion due to ischaemia and reperfusion was selected as the most suitable for checking the efficacy of the compounds MP1002 and MP1001 according to the invention.
Male Sprague Dawley rats (220-230 g) were kept on a standard laboratory diet supplemented with “Nossan Pellets” (Nossan Company, Milan, Italy) and were housed for three weeks prior to the tests (relative humidity 50%±10, temperature 22° C.±1 and light/darkness cycle of 12/12 hours with first light at 7.30 a.m.); food and water were available ad libitum.
The rats (twenty per group) were anaesthetized by intraperitoneal injection of chloral hydrate (380 mg/kg) and were then tracheotomized, intubated and ventilated with ambient air by a suitable ventilator; body temperature was kept at 38° C.±1 and the right carotid artery was cannulated and connected to a pressure transducer to monitor the mean arterial blood pressure (MAP). […]
The coronary artery was occluded by tightening the occluder, a procedure which is correlated with the electrocardiographic and haemodynamic changes (drop in MAP) which are typical of myocardial ischaemia. […] The heart rate (HR) and MAP were monitored continuously. […]

[4] = tested on: lipid peroxidation in the heart tissue; assay: Malondialdehyde (MDA) in the heart tissue in myocardial ischaemia and reperfusion; assay type: in vivo, rat; details: I/R rats, 10 mg/kg bolus then 2 mg/kg/h; p<0.01 (FIG. 2)
Protocol: as §1
The following test groups were considered: a) LAD occlusion (25 minutes) and reperfusion (2 hours) plus administration of the vehicle (saline solution, 3 ml/kg-v-bolus plus 1.8 ml/kg/h) starting 5 minutes after reperfusion and maintained during the reperfusion period; b) LAD occlusion and reperfusion plus administration of MP1002 or MP1001 (10 mg/kg injection in bolus) 5 minutes prior to reperfusion, followed by infusion of 2 mg/kg/h during the reperfusion period; c) sham operation (no LAD occlusion) and infusion of the vehicle; d) sham operation and infusion of MP1002 or MP1001 as described above.
The malondialdehyde (MDA) in the heart tissue as final peroxidation product of the cell membrane lipids was also determined as described above.

[5] = 50 μg paraquat by microinfusion, 5 minutes later 100 mg/kg b.w. intraperitoneal
[6] = pretreated intraperitoneally 120 mg/kg b.w., after 5 minutes paraquat (50 μg) by microinfusion
[7] = simultaneous microinfusion into Substantia Nigra of paraquat (50 μg) with 1 μg compound
[8] = simultaneously 50 μg paraquat by microinfusion and 120 mg/kg b.w. intraperitoneal
[9] = pretreated intraperitoneally 120 mg/kg b.w., after 5 minutes paraquat (50 μg)
[10] = simultaneous microinfusion of paraquat (50 μg) with 1 μg compound

SMILES | Duration (seizures) [1, 5] | Latency (seizures) [1, 5] | Mortality [1, 5] [%] | deaths of rats [1] | signs of alterations during continuous monitoring [1] | survival for a further 24 hours [1] | capacity to cross the blood-brain barrier (BBB) [1] | protection against the behavioural and neuropathological effects induced by Paraquat [1] | Duration (seizures) [1, 6] | Latency (seizures) [1, 6] | Mortality [1, 6] [%] | Duration (seizures) [1, 7] | Latency (seizures) [1, 7] | Mortality [1, 7] [%] | Duration (seizures) [1, 8] | Latency (seizures) [1, 8] | Mortality [1, 8] [%] | Lipid Peroxidation [2, 5] | Lipid Peroxidation [2, 9] | Lipid Peroxidation [2, 10] | other results
CC1(C)CC(OC(=O)CCCCCCCCC(=O)OC2CC(C)(C)N(O)C(C)(C)C2)CC(C)(C)N1O [MP1001, BIS(1-HYDROXYL-2,2,6,6-TETRAMETHYL-4-PIPERIDINYL)DECANDIOATE] | No seizures and epileptic discharges | No seizures and epileptic discharges | 0 | none of the rats died | no signs of alterations were observed | all of the animals survived | cross the blood-brain barrier | protected completely | No seizures and epileptic discharges | No seizures and epileptic discharges | 0 | No seizures and epileptic discharges | No seizures and epileptic discharges | 0 | No seizures and epileptic discharges | No seizures and epileptic discharges | 0 | 4.8 ± 0.57 nmol MDA × h^−1 × mg prot^−1 | 4.7 ± 0.49 nmol MDA × h^−1 × mg prot^−1 | 5.4 ± 0.84 nmol MDA × h^−1 × mg prot^−1 | Lipid Peroxidation [2, 8]: 5.1 ± 0.94 nmol MDA × h^−1 × mg prot^−1; lipid peroxidation in the Substantia Nigra [2]: markedly and significantly (p<0.01) reduced lipid peroxidation; reduction in the size of the infarct compared with the control [3]: 78%; development of lipid peroxidation in heart tissue (MDA) [4]: reduced the development of peroxidation to levels similar to those of the animals that were subjected to sham operations
CC1(C)CC(OC(=O)CCCCCCCCC(=O)OC2CC(C)(C)N(O)C(C)(C)C2)CC(C)(C)N1O [MP1002, bis(1-oxyl-2,2,6,6-tetramethyl-4-piperidinyl)decandioate] | No seizures and epileptic discharges | No seizures and epileptic discharges | 0 | none of the rats died | no signs of alterations were observed | all of the animals survived | cross the blood-brain barrier | protected completely | No seizures and epileptic discharges | No seizures and epileptic discharges | 0 | No seizures and epileptic discharges | No seizures and epileptic discharges | 0 | No seizures and epileptic discharges | No seizures and epileptic discharges | 0 | 4.1 ± 0.39 nmol MDA × h^−1 × mg prot^−1 | 5.2 ± 0.75 nmol MDA × h^−1 × mg prot^−1 | 4.3 ± 0.63 nmol MDA × h^−1 × mg prot^−1 | Lipid Peroxidation [2, 8]: 4.9 ± 0.86 nmol MDA × h^−1 × mg prot^−1; lipid peroxidation in the Substantia Nigra [2]: markedly and significantly (p<0.01) reduced lipid peroxidation; reduction in the size of the infarct compared with the control [3]: 80%; development of lipid peroxidation in heart tissue (MDA) [4]: reduced the development of peroxidation to levels similar to those of the animals that were subjected to sham operations
